Measured values reported in the supplement of paper PMC11208160.

Assay: recombinant barcode read abundance after kanamycin selection (control-corrected) (log10(CPM+1)); higher = more efficient recombination; sequences stand for … in AGTGCAGAGAAAATCGGCCAGTTTTCTCTGCCTGCAGTCCGCATGCCGT…AGATTTATGCAGCGGACTGCCTTTCTCCCAAAGTGATAAACCGGACAGTATCATGGACCGGTTTTCCCGGTAATCCGTATTTGCAAGGTTGGTTTCACT; site = the 11-nt target
Outline: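 In a pooled screen in E. coli, targets were paired with target-binding loops of the IS621 bridge RNA. Each oligo carried a promoter, a target, a barcode and the first 104 bridge RNA bases driven by J23119, and was Gibson-cloned into a vector holding the remaining 73 bp and a T7-inducible recombinase before co-electroporation with a donor plasmid. Duplicate platings went onto chloramphenicol/ampicillin LB agar as the control or onto chloramphenicol/ampicillin/kanamycin with 0.1 mM IPTG. Recombination efficiency is the averaged, control-corrected count per million of barcodes at recombinant junctions, given as log10(CPM+1).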
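Also: IS621 recombinase and bridge RNA in Escherichia coli cells.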

Sequence	recombinant barcode read abundance (log10)
CCTAAGTCTTGGGTTCTAACCTGTTGCCA (site CCTAAGTCTTG)	0.11
CCTAAGTCTTGGGTTCTAACCTGTTGCCA (site GACTTAACTAA)	0.133
CCTAGAACTTGGGTTCTAACCTGTTGCCT (site CCTAGAACTAG)	0.134
CCTAGAACTTGGGTTCTAACCTGTTGCCT (site CCTAGACCTAG)	0.0135
CCTAGAACTTGGGTTCTAACCTGTTGCCT (site CCTAGAGCTAG)	0.126
CCTAGAACTTGGGTTCTAACCTGTTGCCT (site CCTAGATCTAG)	0.0929
CCTCATACTTGGGTTCTAACCTGTTGCCA (site CCTCATACTTG)	0.179
CCTCATACTTGGGTTCTAACCTGTTGCCA (site GGAGTACCTAT)	0.02
CCTCCCTCTTGGGTTCTAACCTGTTGCTG (site CCTCCCTCTCA)	2.49
CCTCCCTCTTGGGTTCTAACCTGTTGCTG (site CCTCCCTCTTA)	0.036
CCTCGATCTTGGGTTCTAACCTGTTGCAT (site CCTCGATCTAT)	1.59
CCTCGATCTTGGGTTCTAACCTGTTGCAT (site TCTCGATCTAT)	0.185
CCTCGGCCTTGGGTTCTAACCTGTTGCAT (site CCACGGCCTAT)	0.0708
CCTCGGCCTTGGGTTCTAACCTGTTGCAT (site CCTCGGCCTAT)	0.862
CCTCGTCCTTGGGTTCTAACCTGTTGCCC (site CCTCGTCCTGG)	0.175
CCTCGTCCTTGGGTTCTAACCTGTTGCCC (site TAGGACTCTAT)	0.00798
CCTCTGCCTTGGGTTCTAACCTGTTGCCT (site CCTCTGCCTAG)	0.855
CCTCTGCCTTGGGTTCTAACCTGTTGCCT (site CGTCTCCCTAG)	0.103
CCTGAATCTTGGGTTCTAACCTGTTGCCT (site CCTGAATCTAG)	0.1
CCTGAATCTTGGGTTCTAACCTGTTGCCT (site CCTGACTCTAG)	0.19
CCTGAATCTTGGGTTCTAACCTGTTGCCT (site CCTGAGTCTAG)	0.279
CCTGAATCTTGGGTTCTAACCTGTTGCCT (site CCTGATTCTAG)	0.073

Sequence	recombinant barcode read abundance (log10)
CCTGAGTCTTGGGTTCTAACCTGTTGCCT (site CCTGAATCTAG)	0.289
CCTGAGTCTTGGGTTCTAACCTGTTGCCT (site CCTGACTCTAG)	0.0437
CCTGAGTCTTGGGTTCTAACCTGTTGCCT (site CCTGAGTCTAG)	1.01
CCTGAGTCTTGGGTTCTAACCTGTTGCCT (site CCTGATTCTAG)	0.0908
CCTGGGCCTTGGGTTCTAACCTGTTGCCT (site CATGGGCCTAG)	0.0944
CCTGGGCCTTGGGTTCTAACCTGTTGCCT (site CCTGGGCCTAG)	0.11
CCTGGGCCTTGGGTTCTAACCTGTTGCCT (site CGTGGGCCTAG)	0.0559
CCTGGGCCTTGGGTTCTAACCTGTTGCCT (site CTTGGGCCTAG)	0
CCTGGGTCTTGGGTTCTAACCTGTTGCTT (site CATGGGTCTAG)	0.0557
CCTGGGTCTTGGGTTCTAACCTGTTGCTT (site CCTGGGTCTAA)	1.08
CCTGTCACTTGGGTTCTAACCTGTTGCCA (site CCTGTCACTTG)	0.474
CCTGTCACTTGGGTTCTAACCTGTTGCCA (site TACCGAGCTCA)	0.11
CCTTGAGCTTGGGTTCTAACCTGTTGCTG (site CCTTGAGCTCA)	0.308
CCTTGAGCTTGGGTTCTAACCTGTTGCTG (site GCTTGAGCTCG)	0.0694
CCTTGTACTTGGGTTCTAACCTGTTGCTT (site AGCATCTCTCG)	0.0216
CCTTGTACTTGGGTTCTAACCTGTTGCTT (site CCTTGTACTAA)	0.131
CCTTTGACTTGGGTTCTAACCTGTTGCTT (site CCTTTGACTAA)	0.0825
CCTTTGACTTGGGTTCTAACCTGTTGCTT (site CCTTTGTCTAA)	0.156
CGAACCGCTTGGGTTCTAACCTGTTGCCT (site CAAACCGCTAG)	0.26
CGAACCGCTTGGGTTCTAACCTGTTGCCT (site CCAACCGCTAG)	0.0439
CGAACCGCTTGGGTTCTAACCTGTTGCCT (site CGAACCGCTAG)	0.974
CGAACCGCTTGGGTTCTAACCTGTTGCCT (site CTAACCGCTAG)	0.0258

Sequence	recombinant barcode read abundance (log10)
CGAACCTCTTGGGTTCTAACCTGTTGCCG (site CGAACCTCTCG)	0.903
CGAACCTCTTGGGTTCTAACCTGTTGCCG (site CGAATCCCTCG)	0.0358
CGAACTACTTGGGTTCTAACCTGTTGCAT (site CGAACTACTAA)	0.215
CGAACTACTTGGGTTCTAACCTGTTGCAT (site CGAACTACTAC)	0.168
CGAACTACTTGGGTTCTAACCTGTTGCAT (site CGAACTACTAG)	0.0576
CGAACTACTTGGGTTCTAACCTGTTGCAT (site CGAACTACTAT)	0.239
CGAACTACTTGGGTTCTAACCTGTTGCTT (site CGAACTACTAA)	0.142
CGAACTACTTGGGTTCTAACCTGTTGCTT (site CGAACTACTAC)	0.205
CGAACTACTTGGGTTCTAACCTGTTGCTT (site CGAACTACTAG)	0.202
CGAACTACTTGGGTTCTAACCTGTTGCTT (site CGAACTACTAT)	0.0384
CGAAGGACTTGGGTTCTAACCTGTTGCTA (site CGAAGGACTTA)	0.973
CGAAGGACTTGGGTTCTAACCTGTTGCTA (site CTAAGGACTTA)	0.231
CGAATCACTTGGGTTCTAACCTGTTGCCT (site CGAATCACTAG)	0.686
CGAATCACTTGGGTTCTAACCTGTTGCCT (site CGAATCCCTAG)	0.062
CGAATCACTTGGGTTCTAACCTGTTGCCT (site CGAATCGCTAG)	0.182
CGAATCACTTGGGTTCTAACCTGTTGCCT (site CGAATCTCTAG)	0.0867
CGAATCCCTTGGGTTCTAACCTGTTGCCG (site CGAACCTCTCG)	0.185
CGAATCCCTTGGGTTCTAACCTGTTGCCG (site CGAATCCCTCG)	0.906
CGACAATCTTGGGTTCTAACCTGTTGCTT (site CGACAATCTAA)	0.0157
CGACAATCTTGGGTTCTAACCTGTTGCTT (site TCTAGGACTTT)	0.27
CGACACACTTGGGTTCTAACCTGTTGCCT (site CGACACACTAG)	0.135
CGACACACTTGGGTTCTAACCTGTTGCCT (site CGCCACACTAG)	0.0974
